Source: patent US9060945B2, “Use of danielone and derivatives thereof in skin care” (DSM IP Assets B.V., priority 2012, dated 2015)

Legend:
Format in all cases: cell-based
[1] = test system: Normal human melanocytes NHM (HEMn-MP); assay: Effect on melanogenesis, comparative example (melanin synthesis in cell culture); details: for skin whitening activity (in words): at all three concentrations tested; for % melanin inhibition: 3 days, 405 nm
Experimental: Normal human melanocytes NHM (HEMn-MP) were seeded in 96 well cell culture plates (20′000 cells per well) and grown to sub-confluence for three days in a 1:2 mixture of M2-Medium (Clonetics) and Promocell-Medium together ‘Culture medium’. Culture medium was exchanged with Culture Medium containing compound and melanogenesis progressed for another three days at a temperature of 37° C. and at 5% CO2 atmosphere. Including cell layer and culture supernatant total melanin was extracted using 1.7M KOH with shaking at 300 rpm for approximately 1 hour at RT. We measured melanin content at 405 nm in an absorbance plate reader. The experiment was done in triplicates. We used PTU as a positive control.

[2] = test system: Normal human melanocytes moderately pigmented (HEMn-MP); assay: Cytotoxicity, MTT assay; details: 3 days incubation, OD 550 nm
Experimental: Cytotoxicity was measured using the MTT assay (Roche). In brief: Normal human melanocytes moderately pigmented (HEMn-MP) were precultured for 24 hrs, and then incubated with compounds for three days. We then added MTT (Roche) labeling reagent 10 μl to each well (final concentration 0.5 mg/ml) and incubated the microtiterplate for 4 hrs at 37° C., and under 5% CO2. After addition of 100 μl solubilisation solution into each well, the plate was allowed to stand overnight in the incubator (37° C., 5% CO2. The absorbance OD 550 nm was measured in an absorbance plate reader (ELX 800 BIO-TEK Instrument) and the data is shown in Table 1.

[3] = test system: Human melanocytes moderately pigmented (HEMn-MP); assay: Cell-pellet depigmentation assay; details: scale 1 to 5 (5 = dark control cell pellet, 1 = very light brown cell pellet)
Experimental: Human melanocytes moderately pigmented (HEMn-MP) were seeded in 6-well culture plates at a cell density of 2×10E5 cells/mL and preincubated for three days in a 1:2 mixture of M2-Medium (Clonetics) and Promocell-Medium together ‘Culture medium’ in an incubator at a temperature of 37° C. and at 5% CO2 Atmosphere. Culture medium was exchanged with Culture Medium containing compound and melanogenesis progressed for another three days in an incubator at same incubation conditions as described above. Compound dilutions were done in duplicates. Cells were harvested after trypsinization and pooled in eppendorf-tubes, centrifugated and supernatant removed. The remaining cell pellet was photographed and visually checked for whitening effects. The pellets were scored for their darkness in a scale 1 to 5 (5 corresponding to dark control cell pellet) and 1 corresponding to a very light brown cell pellet.

[4] = test system: Normal human melanocytes moderately pigmented (HEMn-MP); assay: Quantification of melanin synthesis in cell culture; details: 3 days, baseline = 100, 405 nm
Experimental: Normal human melanocytes moderately pigmented (HEMn-MP) were seeded in 96 well cell culture plates (20′000 cells per well) and grown to sub-confluence for three days in a 1:2 mixture of M2-Medium (Clonetics) and Promocell-Medium together ‘Culture medium’. Culture medium was exchanged with Culture Medium containing compound and melanogenesis progressed for another three days in an incubator at a temperature of 37° C. and at 5% CO2 atmosphere. Including cell layer and culture supernatant total melanin was extracted using 1.7M KOH with shaking at 300 rpm for approximately 1 hour at room temperature. We measured melanin content at 405 nm in an absorbance plate reader. We use phenylthiourea (PTU) as a positive control at a concentration of 0.0152% (1 mM). PTU is a tyrosinase inhibitor (Poma 1999) and is commonly used as a reference in cell pigmentation assays (see e.g. Le Pape 2008).

SMILES	skin whitening activity (in words) [1]	% melanin inhibition ([1]; concentration 0.0025%)	% melanin inhibition ([1]; concentration 0.005%)	% melanin inhibition ([1]; concentration 0.01%)	Viability ([2]; concentration 0.00025 %)	Viability ([2]; concentration 0.0025 %)	Viability ([2]; concentration 0.025 %)	Darkness level of the cell pellet ([3]; 0.0025%)	Total melanin ([4]; concentration 0.000625 %)	Total melanin ([4]; concentration 0.00125 %)	Total melanin ([4]; concentration 0.0025 %)	Darkness level of the cell pellet ([3]; 0.0152%)	Total melanin ([4]; concentration 0.0152 % (1 mM))
COc1cc(C(=O)CO)cc(OC)c1O [Danielone, 2-hydroxy-1-(4-hydroxy-3,5-dimethoxy-phenyl)-ethanone]	very efficient	1.51%	−40.20%	−49.25%	112%	113%	51%	2	104%	75%	66%		
NC(=S)Nc1ccccc1 [PTU, phenylthiourea, reference compound]												1	58%
COc1cc(C(=O)CCO)ccc1O [beta-hydroxypropiovanillon, reference compound]	no activity	7.45%	7.45%	4.26%									
